Test [1] relates to NCI-N87 human gastric cancer cells. In words: Comparative study of the activity of camptothecins (CCK-8 cell killing). The test is classed as cell-based. The settings on record: Homo sapiens, NCI-N87, 96 h, read-out: Maximum Killing (%), NCI-N87, killing days 4 days. The procedure:
(§1) KB oral epithelial cancer cells (purchased from: ATCC) were cultured in DMEM medium supplemented with 10% FBS; NCI-N87 human gastric cancer cells (purchased from: ATCC) were cultured in RPMI1640 medium supplemented with 10% FBS; HT29 human colon cancer cells (purchased from: ATCC) were cultured in RPMI1640 medium supplemented with 10% FBS; and BxPC-3 human pancreatic adenocarcinoma cells (purchased from: ATCC) were cultured in RPMI1640 medium supplemented with 10% FBS.
(§2) Using corresponding media described above and in cell plates, the density of KB cells was adjusted to 2×10^4/mL; the density of NCI-N87 cells was adjusted to 5×10^4/mL; the density of HT29 cells was adjusted to 5×10^4/mL, and the cells were plated onto 96-well transparent flat bottom plates, at 100 µL/well, and cultured overnight; and the density of BxPC-3 cells was adjusted to 5×10^4/mL.
(§3) Samples to be detected were diluted to 20 μM with corresponding media, then 5-fold gradient dilution was performed, and 9 concentrations were obtained. A well having cells but with no any sample added was set as the well showing maximum cell growth; and a well having no cells was set as the well of medium background. The diluted samples were added into the cell plates, at 100 μL/well, which were then incubated in a C02 incubator for 96 hours. After the incubation, CCK-8 (purchased from: DOJINDO LABORATORIES) prepared beforehand was added into the plates, at 20 μL/well, and after further 3 hours incubation in the C02 incubator, […] were read on a microplate reader.
(§4) Data obtained was fitted to a four-parameter curve using software Prism7, and equation for calculating maximum killing is: maximum killing (%)=1−(OD450 value of the well showing maximum killing—OD450 value of the well of medium background)/(OD450 value of the well showing maximum cell growth—OD450 value of the cell of medium background)[…].

In test [2] the test system is BxPC-3 human pancreatic adenocarcinoma cells. Described as above. In kind it is cell-based. The protocol: as §1, §2, §3, §4

Data on 1 compound can be found in patent US20250059201A1, “CAMPTOTHECIN COMPOUND AND CONJUGATE THEREOF” (priority 2021, published 2025).

Each structure is given as a SMILES string. Values joined by “and” are separate entries in the source; they are usually repeats but may differ in a detail not shown here. Identical values can stand only once.

For the compound `CC[C@@]1(O)C(=O)OCc2c1cc1n(c2=O)Cc2c-1nc1ccc(N)c3c1c2C(F)(F)CC3` [Compound 3], the Emax in test [1] is 92.1%; in test [2] (Homo sapiens, BXPC-3, 96 h, read-out: Maximum Killing (%), BxPC-3, killing days 4 days) it was 98%. For the same compound, the EC50 – broadly, the midpoint of the concentration-response curve – in test [2] (BxPC-3, killing days 4 days) is 3.23 nM and 5.82 nM.
